# Test results from patent EP3119416B1, “THERAPEUTIC USE OF ADIPOKINETIC HORMONE/RED PIGMENT-CONCENTRATING HORMONE (AKH/RPCH) FAMILY OF PEPTIDES” (Mutlu, Oguz, priority 2015, dated 2017).
# Square brackets hold non-standard residues; d marks the D form. Peptide text beside a SMILES is read from it. pGlu = O=C1CC[C@@H](C(=O)O)N1
# How the values were obtained:
# [1] = system: BALB/c ByJ mice; assay: Forced Swim Test (FST); format: in vivo; details: for immobility time: 60 min before test, compared to control group, Fig 1a/1b; for antidepressant effects in the forced swimming test: male balb-c mice
# Method: (§1) Male, inbred BALB/c ByJ mice (Uludag University, Bursa, Turkey), 7-8 weeks old at their arrival to the laboratory, were used in this study. They were kept in the laboratory for two weeks before the onset of the experiments. Mice were maintained under standard laboratory conditions (12-h light: 12-h dark cycle, lights on 07:00 h, T=21±1°C). All animals received food and water ad libitum. All procedures described in this assay were conducted in accordance with the European Community Council's Directive for the ethical treatment of animals (86/609/EEC) and with the approval of the Kocaeli University Medical Faculty (7/3/2014).
# (§2) In the FST, EPM, and locomotor activity tests, the animals were treated with Ani-AKH (1 and 2 mg/kg) (n=9-10), Lia-AKH (1 and 2 mg/kg) (n=10-12) and Pht-HrTH (1 and 2 mg/kg) (n=10-12) or vehicle (saline with 1% DMSO) (n= 10) for 14 days (chronically) and the drugs were administered intraperitoneally (i.p.) 60 min. before each test in a volume of 0.1 ml/10 g body weight. Separate group of animals used in each test.
# The FST employed was similar to a previously described method (Porsolt et al, 1977). Briefly, the mice were dropped individually into Plexiglas cylinders (height 25 cm, diameter 10 cm) containing 10 cm of water maintained at 23-25°C and left there for 6 min. Because this is a situation from which they cannot escape, the animals rapidly become immobile, that is, floating in an upright position and making only small movements to keep their heads above water. The duration of immobility was recorded during the last 4 min of the 6-min testing period.
# (§3) The results of the FST, EPM, locomotor activity tests were evaluated by one-way ANOVA followed by Tukey's post-hoc test when significant differences were detected. The data are expressed as the mean values ± SEM. The differences were considered to be statistically significant when p was less than 0.05.
# [2] = system: BALB/c ByJ mice; assay: Elevated Plus-Maze Test (EPM); format: in vivo
# Method: as §1, §2
# In addition, in the EPM (acute) test, Ani- AKH (0.5 and 1 mg/kg) (n= 10 per group) was also administered, just for one time, before the test to investigate the acute effect of the hormone.
# Anxiety related behaviour was measured by the elevated plus-maze test. Experiments were conducted in a dimly lit, semi-soundproof room, illuminated with table lamp (80 lux). Maze was made of wood and consisted of two open (29 cm long × 5 cm wide) and closed arms (29 cm × 5 cm with 15 cm high walls) forming a square cross with a 5 cm square center piece. In order to avoid falls the open arms was surrounded by a short (1 cm) Plexiglas edge. The maze was elevated 40 cm above the floor. Each mice was placed at the center of the maze, facing one of the open arms, and was allowed to explore the maze. The open-arm activity was evaluated as: 1) time spent in the open arms relative to the total time spent in the plus maze (300 s), expressed as a percentage 2) number of entries into the open arms relative to the total number of entries into both open and closed arms, expressed as a percentage. These values were accepted as indexes of anxiety in mice.
# as §3
# [3] = system: BALB/c ByJ mice; assay: Locomotor activity test (open field); format: in vivo; details: for locomotion enhancing effects in the locomotor activity test: male balb-c mice
# Method: as §1, §2
# Locomotor activity was measured using an open field test in a square arena (40 x 40 x 40 cm box). The animal was placed in the center of the apparatus and behaviours were recorded for a period of 5 min using the Etovision-XT video tracking system. The locomotor activity was evaluated by measuring the total distance travelled (cm) in the apparatus and the speed (cm/s) of the animals.
# as §3
# [4] = system: Emperor dragonfly, Anax imperator; details: low concentrations of the synthetic peptide injected into the Emperor dragonfly; cited from earlier work
# [5] = system: adult females of the firebug, Pyrrhocoris apterus (L.); details: adult female firebugs, cited from earlier work; for walking activity: simultaneously with elevation of lipid level in the haemolymph
# [6] = system: Albino Swiss mice; details: injection to Albino Swiss mice (20-25 g); cited from earlier work
# [7] = system: Albino Swiss mice; details: cited from earlier work
# [8] = system: Albino Swiss mice; details: cited from earlier work; remark: listed apart in the source
# [9] = system: Albino Swiss mice; details: administered intracerebroventricularly to mice; cited from earlier work
# [10] = chronic, 1 mg/kg i.p. for 14 days, Fig 2c/2e
# [11] = chronic, 1 mg/kg i.p. for 14 days, Fig 2d/2f
# [12] = chronic, 2 mg/kg i.p. for 14 days, Fig 2c/2e
# [13] = chronic, 2 mg/kg i.p. for 14 days, Fig 2d/2f
# [14] = 2 mg/kg i.p. for 14 days, compared to control, Fig 3a/3c
# [15] = 2 mg/kg i.p. for 14 days, compared to control, Fig 3b/3d
compound,measurement,setting,value
"CC(C)[C@H](NC(=O)[C@@H]1CCC(=O)N1)C(=O)N[C@@H](CC(N)=O)C(=O)N[C@@H](Cc1ccccc1)C(=O)N[C@@H](CO)C(=O)N1CCC[C@H]1C(=O)N[C@@H](CO)C(=O)N[C@@H](Cc1c[nH]c2ccccc12)C(N)=O [Ani-AKH, 5-oxo-L-prolyl-L-valyl-L-asparaginyl-L-phenylalanyl-L-seryl-L-prolyl-L-seryl-L-Tryptophanamide] ([pGlu]VNFSPSW-NH2)",immobility time,[1]; 1 mg/kg i.p. for 14 days,significantly diminished
same,antidepressant effects in the forced swimming test,[1]; 1 mg/kg i.p.,had antidepressant effects
same,immobility time,[1]; 2 mg/kg i.p. for 14 days,significantly diminished
same,antidepressant effects in the forced swimming test,[1]; 2 mg/kg i.p.,had antidepressant effects
same,%time spent in the open arms,"[2]; acute, 0.5 mg/kg i.p., one time before the test, Fig 2a",significantly increased
same,%open arm/total arm entries,"[2]; acute, 1 mg/kg i.p., one time before the test, Fig 2b",significantly increased
same,anxiolytic effects in the elevated plus maze test,"[2]; administered acutely, 0.5 mg/kg",had anxiolytic effects
same,anxiolytic effects in the elevated plus maze test,"[2]; administered acutely, 1 mg/kg",had anxiolytic effects
same,%time spent in the open arms,[2]; [10],didn't alter
same,%open arm/total arm entries,[2]; [11],didn't alter
same,%time spent in the open arms,[2]; [12],didn't alter
same,%open arm/total arm entries,[2]; [13],didn't alter
same,total distance moved,[3]; [14],increased
same,speed of the animals,[3]; [15],increased
same,locomotion enhancing effects in the locomotor activity test,[3]; 2 mg/kg i.p.,had locomotion enhancing effects
same,haemolymph lipid concentration,[4],increased
"CC(C)[C@H](NC(=O)[C@@H]1CCC(=O)N1)C(=O)N[C@@H](CC(N)=O)C(=O)N[C@@H](Cc1ccccc1)C(=O)N[C@H](C(=O)N1CCC[C@H]1C(=O)N[C@@H](CO)C(=O)N[C@@H](Cc1c[nH]c2ccccc12)C(N)=O)[C@@H](C)O [Lia-AKH, 5-oxo-L-prolyl-L-valyl-L-asparaginyl-L-phenylalanyl-L-threonyl-L-prolyl-L-seryl-L-Tryptophanamide] ([pGlu]VNFTPSW-NH2)",immobility time,[1]; 1 mg/kg i.p. for 14 days,significantly diminished
same,antidepressant effects in the forced swimming test,[1]; 1 mg/kg i.p.,had antidepressant effects
same,immobility time,[1]; 2 mg/kg i.p. for 14 days,significantly diminished
same,antidepressant effects in the forced swimming test,[1]; 2 mg/kg i.p.,had antidepressant effects
same,%time spent in the open arms,[2]; [12],significantly increased
same,%open arm/total arm entries,[2]; [13],significantly increased
same,anxiolytic effects in the elevated plus maze test,"[2]; given chronically, 2 mg/kg",had anxiolytic effects
same,total distance moved,"[3]; 1 mg/kg i.p. for 14 days, compared to control, Fig 3c",increased
same,speed of the animals,"[3]; 1 mg/kg i.p. for 14 days, compared to control, Fig 3d",increased
same,locomotion enhancing effects in the locomotor activity test,[3]; 1 mg/kg i.p.,had locomotion enhancing effects
same,total distance moved,[3]; [14],increased
same,speed of the animals,[3]; [15],increased
same,locomotion enhancing effects in the locomotor activity test,[3]; 2 mg/kg i.p.,had locomotion enhancing effects
"CC(C)C[C@H](NC(=O)[C@@H]1CCC(=O)N1)C(=O)N[C@H](C(=O)N[C@@H](Cc1ccccc1)C(=O)N[C@@H](CO)C(=O)N1CCC[C@H]1C(=O)N[C@@H](CC(=O)O)C(=O)N[C@@H](Cc1c[nH]c2ccccc12)C(N)=O)[C@@H](C)O [Pht-HrTH, 5-oxo-L-prolyl-L-leucyl-L-threonyl-L-phenylalanyl-L-seryl-L-prolyl-L-alfa-aspartyl-L-Tryptophanamide] ([pGlu]LTFSPDW-NH2)",immobility time,[1]; 1 mg/kg i.p. for 14 days,significantly diminished
same,antidepressant effects in the forced swimming test,[1]; 1 mg/kg i.p.,had antidepressant effects
same,immobility time,[1]; 2 mg/kg i.p. for 14 days,significantly diminished
same,antidepressant effects in the forced swimming test,[1]; 2 mg/kg i.p.,had antidepressant effects
same,%time spent in the open arms,[2]; [10],significantly increased
same,%open arm/total arm entries,[2]; [11],significantly increased
same,%time spent in the open arms,[2]; [12],significantly increased
same,%open arm/total arm entries,[2]; [13],significantly increased
same,anxiolytic effects in the elevated plus maze test,"[2]; given chronically, 1 mg/kg",had anxiolytic effects
same,anxiolytic effects in the elevated plus maze test,"[2]; given chronically, 2 mg/kg",had anxiolytic effects
same,locomotion enhancing effects in the locomotor activity test,"[3]; dose not given, i.p.",had locomotion enhancing effects
same,total distance moved,"[3]; dose not printed in the sentence (groups 1 and 2 mg/kg i.p. for 14 days), Fig 3c",increased
same,speed of the animals,"[3]; dose not printed in the sentence (groups 1 and 2 mg/kg i.p. for 14 days), Fig 3d",increased
NCCc1ccc(O)c(O)c1 [dopamine],AKHs level in haemolymph,[5],decreased
same,level of AKHs in CNS,[5],no effect
same,mobilization of the fat body lipids,[5],mobilized
same,walking activity,[5],capable to enhance
NCCc1c[nH]cn1 [histamine],mobilization of the fat body lipids,[5],mobilized
NC[C@H](O)c1ccc(O)c(O)c1 [norepinephrine],AKHs level in haemolymph,[5],increased
same,level of AKHs in CNS,[5],no effect
same,mobilization of the fat body lipids,[5],mobilized
same,walking activity,[5],capable to enhance
NCC(O)c1ccc(O)cc1 (stereo not shown) [octopamine],mobilization of the fat body lipids,[5],mobilized
NCCc1c[nH]c2ccc(O)cc12 [serotonin],mobilization of the fat body lipids,[5],mobilized
[pGlu]VNFSPNW-NH2 [periplanetin CC-1],analgesic activity,[6],strong analgesic activity
same,mortality in pentetrazole-induced seizures,[7],increased
same,threshold for tonic seizures,[7]; pentetrazole-induced seizures,decreased
same,influence on the electric convulsions,[8],no influence
same,peripheral blood glucose level,[9],did not increase
